Test results taken from patent US20240246968A1, “SMALL MOLECULE INHIBITORS OF KRAS G12C MUTANT” (Merck Sharp & Dohme LLC, priority 2021, published 2024).

Legend:
[1] = biological target: T1, interaction between recombinant K-Ras4B G12C mutant protein and cRAF RAS-binding domain (cRAF-RBD) (Homo sapiens, UniProt P01116, G12C); assay: Inhibitory activity on interaction between KRAS G12C and cRAF (Alpha technology); format: biochemical; details: GMPPNP-bound KRAS G12C incubated with compound at 25° C. for 1 hour, then cRAF-RBD; Alpha signal
T1 construct: made in house; host or cells: E. coli
Summary of the method: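 GMPPNP-loaded His-tagged KRAS G12C (aa 1-169, E. coli) preincubated with compound 1 h at 25° C in Tris pH 7.5, 100 mM NaCl, 1 mM MgCl2, TCEP, 0.1% Tween 20; cRAF-RBD (aa 50-132) added, 1.5 h RT, Alpha signal read. DMSO = 0%, GDP-bound KRAS = 100% inhibition; IC50 from dose titration fit.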

[2] = biological target: Gppcp-bound recombinant K-Ras4B G12C mutant protein (amino acids 1-169, C51S/C80L/C118S) (Homo sapiens, UniProt P01116, C118S/C51S/C80L/G12C); assay: KRASG12C binding assay (LC-MS, compound binding rate); details: test compound final concentration 0.5 μM, 25° C., 1 hour
Summary of the method: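 Gppcp-bound K-Ras4B G12C (1-169; C51S/C80L/C118S), 50 nM in TBS with 0.1 mM TCEP, 0.25 mM MgCl2, 50 μM Gppcp, exposed to compound at 0.5 μM final for 1 h at 25 °C. Quenched with formic acid and analysed by intact-protein ESI LC-MS. Binding rate is the mono-adduct signal over total KRAS signal; graded A (≥80%) to E (<20%).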

MIA PaCa-2 cells = assay: Growth inhibition activity on KRAS-G12C mutant cell line (MIA PaCa-2), CellTiter-Glo 3D; format: cell-based, human; details: MIA PaCa-2, 3-day culture with compound
Summary of the method: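 Cells in RPMI1640 with 10% FBS were seeded in U-bottom plates and cultured 1 day at 37 °C, 5% CO2, then exposed to compound (0.2% DMSO final) for 3 more days. Viability read by CellTiter-Glo 3D luminescence; IC50 from growth inhibition relative to untreated wells.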

`CCc1cc2c(nc(C)n2C)c(Cl)c1-c1cccn2c(C(=O)c3cc(F)c(NC(=O)/C=C/CN[C@H]4CC[C@H](OC)CC4)c(F)c3)ccc12` (single isomer, unassigned) [Example 22-1, (E)-N-(4-(8-(4-chloro-6-ethyl-1,2-dimethyl-1H-benzo[d]imidazol-5-yl)indolizine-3-carbonyl)-2,6-difluorophenyl)-4-(((1r,4r)-4-methoxycyclohexyl)amino)but-2-enamide] was tested, and the IC50 [1] was 23 nM, the binding rate [2] was “A (A binding rate of 80% or more is rated “A”)” and the IC50 (MIA PaCa-2 cells) was 72 nM.

In the case of `CO[C@H]1C[C@H](NC/C=C/C(=O)Nc2c(F)cc(C(=O)c3ccc4c(-c5cc6nc(C)n(C)c6cc5C(F)(F)F)cccn34)cc2F)C1` [Example 54, (E)-N-(4-(8-(1,2-dimethyl-6-(trifluoromethyl)-1H-benzo[d]imidazol-5-yl)indolizine-3-carbonyl)-2,6-difluorophenyl)-4-(((1r,3r)-3-methoxycyclobutyl)amino)but-2-enamide], the IC50 [1] is reported as 67 nM, the binding rate [2] is reported as “A (A binding rate of 80% or more is rated “A”)” and the IC50 (MIA PaCa-2 cells; Homo sapiens, MIA PaCa-2, 72 h) is reported as 130 nM.

`CO[C@H]1CC[C@H](NC/C=C/C(=O)Nc2c(F)cc(C(=O)c3cnc4c(-c5cc6nc7n(c6cc5C(F)(F)F)CCC7)cccn34)cc2F)CC1` [Example 6, (E)-N-(2,6-difluoro-4-(8-(7-(trifluoromethyl)-2,3-dihydro-1H-benzo[d]pyrrolo[1,2-a]imidazol-6-yl)imidazo[1,2-a]pyridine-3-carbonyl)phenyl)-4-(((1r,4r)-4-methoxycyclohexyl)amino)but-2-enamide] was tested, and the IC50 [1] was 70 nM, the binding rate [2] was “B (a binding rate of 60% or more and less than 80% is rated “B”)” and the IC50 (MIA PaCa-2 cells; Homo sapiens, MIA PaCa-2, 72 h) was 94 nM.

For `Cc1nc2cc(-c3cccn4c(C(=O)c5cc(F)c(NC(=O)/C=C/CNC6(C)CCOCC6)c(F)c5)ccc34)c(C(F)(F)F)cc2n1C` [Example 26], the IC50 [1] was 62 nM, the binding rate [2] was “A (A binding rate of 80% or more is rated “A”)” and the IC50 (MIA PaCa-2 cells; Homo sapiens, MIA PaCa-2, 72 h) was 82 nM.

With `COc1c(-c2cccn3c(C(=O)c4cc(F)c(NC(=O)/C=C/CN[C@H]5CC[C@H](OC)CC5)c(F)c4)ccc23)c(C)cc2c1nc(C)n2C` (single isomer, unassigned) [Example 39-2, (E)-N-(2,6-difluoro-4-(8-(4-methoxy-1,2,6-trimethyl-1H-benzo[d]imidazol-5-yl)indolizine-3-carbonyl)phenyl)-4-(((1r,4r)-4-methoxycyclohexyl)amino)but-2-enamide] the IC50 [1] was 32 nM, the binding rate [2] was “A (A binding rate of 80% or more is rated “A”)” and the IC50 (MIA PaCa-2 cells) was 44 nM.

With `CO[C@H]1CC[C@H](NC/C=C/C(=O)Nc2c(F)cc(C(=O)c3ccc4c(-c5c(C(F)(F)F)cc6c(nc(CO)n6C)c5Cl)cccn34)cc2F)CC1` [Example 67, (E)-N-(4-(8-(4-chloro-2-(hydroxymethyl)-1-methyl-6-(trifluoromethyl)-1H-benzo[d]imidazol-5-yl)indolizine-3-carbonyl)-2,6-difluorophenyl)-4-(((1r,4r)-4-methoxycyclohexyl)amino)but-2-enamide] the IC50 [1] was 38 nM, the binding rate [2] was “A (A binding rate of 80% or more is rated “A”)” and the IC50 (MIA PaCa-2 cells; Homo sapiens, MIA PaCa-2, 72 h) was 51 nM.

With `CCc1cc2c(ncn2C)c(Cl)c1-c1cccn2c(C(=O)c3cc(F)c(NC(=O)/C=C/CN[C@H]4CC[C@H](OC)CC4)c(F)c3)ccc12` [Example 10, (E)-N-(4-(8-(4-chloro-6-ethyl-1-methyl-1H-benzo[d]imidazol-5-yl)indolizine-3-carbonyl)-2,6-difluorophenyl)-4-(((1r,4r)-4-methoxycyclohexyl)amino)but-2-enamide] the IC50 [1] was 69 nM, the binding rate [2] was “A (A binding rate of 80% or more is rated “A”)” and the IC50 (MIA PaCa-2 cells; Homo sapiens, MIA PaCa-2, 72 h) was 94 nM.

For `COc1cc2c(nc(C)n2C)c(Cl)c1-c1cccn2c(C(=O)c3cc(F)c(NC(=O)/C=C/CN[C@H]4CC[C@H](OC)CC4)c(F)c3)ccc12` (single isomer, unassigned) [Example 35-2, (E)-N-(4-(8-(4-chloro-6-methoxy-1,2-dimethyl-1H-benzo[d]imidazol-5-yl)indolizine-3-carbonyl)-2,6-difluorophenyl)-4-(((1r,4r)-4-methoxycyclohexyl)amino)but-2-enamide], the IC50 [1] was 53 nM, the binding rate [2] was “A (A binding rate of 80% or more is rated “A”)” and the IC50 (MIA PaCa-2 cells) was 73 nM.

For `CO[C@H]1CC[C@H](NC/C=C/C(=O)Nc2c(F)cc(C(=O)c3ccc4c(-c5cc6nc(C)n(C)c6cc5C(F)(F)F)cccn34)cc2F)CC1` [Example 2, (E)-N-(4-(8-(1,2-dimethyl-6-(trifluoromethyl)-1H-benzo[d]imidazol-5-yl)indolizine-3-carbonyl)-2,6-difluorophenyl)-4-(((1r,4r)-4-methoxycyclohexyl)amino)but-2-enamide], the IC50 [1] was 60 nM, the binding rate [2] was “A (A binding rate of 80% or more is rated “A”)” and the IC50 (MIA PaCa-2 cells; Homo sapiens, MIA PaCa-2, 72 h) was 57 nM.

In the case of `COc1cc2c(ncn2C)c(Cl)c1-c1cccn2c(C(=O)c3cc(F)c(NC(=O)/C=C/CN[C@H]4CC[C@H](OC)CC4)c(F)c3)ccc12` (single isomer, unassigned) [Example 41-1, (E)-N-(4-(8-(4-chloro-6-methoxy-1-methyl-1H-benzo[d]imidazol-5-yl)indolizine-3-carbonyl)-2,6-difluorophenyl)-4-(((1r,4r)-4-methoxycyclohexyl)amino)but-2-enamide], the IC50 [1] is reported as 52 nM, the binding rate [2] is reported as “A (A binding rate of 80% or more is rated “A”)” and the IC50 (MIA PaCa-2 cells; Homo sapiens, MIA PaCa-2, 72 h) is reported as 32 nM.

For `CO[C@H]1CC[C@H](NC/C=C/C(=O)Nc2c(F)cc(C(=O)c3cc(CO)c4c(-c5c(C)cc6c(nc(C)n6C)c5Cl)cccn34)cc2F)CC1` [Example 93], the IC50 [1] was 25 nM, the binding rate [2] was “A (A binding rate of 80% or more is rated “A”)” and the IC50 (MIA PaCa-2 cells; Homo sapiens, MIA PaCa-2, 72 h) was 130 nM.

For `CO[C@H]1CC[C@H](NC/C=C/C(=O)Nc2c(F)cc(C(=O)c3ccc4c(-c5c(C(F)(F)F)cc6c(ncn6C)c5Cl)cccn34)cc2F)CC1` (single isomer, unassigned) [Example 28-1, (E)-N-(4-(8-(4-chloro-1-methyl-6-(trifluoromethyl)-1H-benzo[d]imidazol-5-yl)indolizine-3-carbonyl)-2,6-difluorophenyl)-4-(((1r,4r)-4-methoxycyclohexyl)amino)but-2-enamide], the IC50 [1] was 31 nM, the binding rate [2] was “A (A binding rate of 80% or more is rated “A”)” and the IC50 (MIA PaCa-2 cells) was 51 nM.

In the case of `CO[C@H]1CC[C@H](NC/C=C/C(=O)Nc2c(F)cc(C(=O)c3ccc4c(-c5cc6nc(C)n(C)c6cc5C(F)(F)F)nccn34)cc2F)CC1` [Example 115, (E)-N-(4-(1-(1,2-dimethyl-6-(trifluoromethyl)-1H-benzo[d]imidazol-5-yl)pyrrolo[1,2-a]pyrazine-6-carbonyl)-2,6-difluorophenyl)-4-(((1r,4r)-4-methoxycyclohexyl)amino)but-2-enamide], the IC50 [1] is reported as 452 nM, the binding rate [2] is reported as “B (a binding rate of 60% or more and less than 80% is rated “B”)” and the IC50 (MIA PaCa-2 cells; Homo sapiens, MIA PaCa-2, 72 h) is reported as 248 nM.

With `CO[C@H](C)c1nc2c(Cl)c(-c3cccn4c(C(=O)c5cc(F)c(NC(=O)/C=C/CN[C@H]6CC[C@H](OC)CC6)c(F)c5)ccc34)c(C)cc2n1C` (single isomer, unassigned) [Example 48] the IC50 [1] was 110 nM, the binding rate [2] was “A (A binding rate of 80% or more is rated “A”)” and the IC50 (MIA PaCa-2 cells) was 230 nM.

With `COc1c(-c2cccn3c(C(=O)c4cc(F)c(NC(=O)/C=C/CNC(C)(C)C)c(F)c4)ccc23)c(C)cc2c1nc(C)n2C` (single isomer, unassigned) [Example 40-1] the IC50 [1] was 340 nM, the binding rate [2] was “A (A binding rate of 80% or more is rated “A”)” and the IC50 (MIA PaCa-2 cells) was 340 nM.

With `COc1cc(N2CCCC2=O)cc(Cl)c1-c1cccn2c(C(=O)c3cc(F)c(NC(=O)/C=C/CN[C@H]4CC[C@H](OC)CC4)c(F)c3)ccc12` (single isomer, unassigned) [Example 30-2, (E)-N-(4-(8-(2-chloro-6-methoxy-4-(2-oxopyrrolidin-1-yl)phenyl)indolizine-3-carbonyl)-2,6-difluorophenyl)-4-(((1r,4r)-4-methoxycyclohexyl)amino)but-2-enamide] the IC50 [1] was 61 nM, the binding rate [2] was “A (A binding rate of 80% or more is rated “A”)” and the IC50 (MIA PaCa-2 cells) was 120 nM.

With `CO[C@H]1CC[C@H](NC/C=C/C(=O)Nc2c(F)cc(C(=O)c3ccc4c(-c5c(C(F)F)cc6c(nc(C)n6C)c5Cl)cccn34)cc2F)CC1` [Example 64, (E)-N-(4-(8-(4-chloro-6-(difluoromethyl)-1,2-dimethyl-1H-benzo[d]imidazol-5-yl)indolizine-3-carbonyl)-2,6-difluorophenyl)-4-(((1r,4r)-4-methoxycyclohexyl)amino)but-2-enamide] the IC50 [1] was 46 nM, the binding rate [2] was “A (A binding rate of 80% or more is rated “A”)” and the IC50 (MIA PaCa-2 cells; Homo sapiens, MIA PaCa-2, 72 h) was 25 nM.

For `COc1c(-c2cccn3c(C(=O)c4cc(F)c(NC(=O)/C=C/CNC(C)(C)C)c(F)c4)ccc23)c(C)cc2c1nc(C)n2C` (single isomer, unassigned) [Example 40-2], the IC50 [1] was 21 nM, the binding rate [2] was “A (A binding rate of 80% or more is rated “A”)” and the IC50 (MIA PaCa-2 cells) was 73 nM.
